Data on 21 compounds can be found in patent publication US10793553B2, “TLR7/8 antagonists and uses thereof” (Merck Patent GmbH, priority 2017, dated 2020).

Test [1] has as its target T1, TLR7 (Homo sapiens, UniProt Q9NYK1).
T1 construct: expressed in transfected cells; host or cells: HEK cells carrying TLR7 and an NFkB luciferase reporter
T1 sequence (Q9NYK1 27-1049): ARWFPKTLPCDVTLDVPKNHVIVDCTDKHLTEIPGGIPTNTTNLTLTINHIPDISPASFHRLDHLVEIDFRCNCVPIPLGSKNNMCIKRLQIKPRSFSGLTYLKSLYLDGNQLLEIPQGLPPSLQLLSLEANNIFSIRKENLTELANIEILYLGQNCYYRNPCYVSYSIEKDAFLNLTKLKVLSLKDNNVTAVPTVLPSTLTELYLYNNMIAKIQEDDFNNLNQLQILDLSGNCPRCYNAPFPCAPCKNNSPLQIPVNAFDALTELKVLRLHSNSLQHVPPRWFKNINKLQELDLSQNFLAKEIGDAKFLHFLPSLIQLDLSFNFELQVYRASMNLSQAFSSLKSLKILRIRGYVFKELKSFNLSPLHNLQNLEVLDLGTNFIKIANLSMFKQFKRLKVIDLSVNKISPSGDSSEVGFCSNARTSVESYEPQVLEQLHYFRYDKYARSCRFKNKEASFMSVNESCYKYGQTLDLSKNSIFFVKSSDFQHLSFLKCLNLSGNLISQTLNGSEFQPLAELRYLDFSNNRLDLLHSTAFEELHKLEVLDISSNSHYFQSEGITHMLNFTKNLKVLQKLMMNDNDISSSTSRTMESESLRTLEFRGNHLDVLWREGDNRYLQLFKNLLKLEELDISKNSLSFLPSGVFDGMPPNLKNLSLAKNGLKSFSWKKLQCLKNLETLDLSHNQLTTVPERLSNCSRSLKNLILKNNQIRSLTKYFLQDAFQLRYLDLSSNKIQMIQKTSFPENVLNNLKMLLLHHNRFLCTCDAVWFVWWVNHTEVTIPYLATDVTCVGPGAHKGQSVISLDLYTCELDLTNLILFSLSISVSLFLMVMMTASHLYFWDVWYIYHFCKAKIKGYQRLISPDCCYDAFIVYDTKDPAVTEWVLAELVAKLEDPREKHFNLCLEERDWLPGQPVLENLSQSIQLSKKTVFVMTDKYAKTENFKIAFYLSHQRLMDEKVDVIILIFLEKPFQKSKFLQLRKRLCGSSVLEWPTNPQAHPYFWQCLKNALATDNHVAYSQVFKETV
Put plainly: HEK TLR7 Cell Assay. Type of test: cell-based. As to conditions: TLR7/NFKb HEK cells, R848 agonist 10 uM final, Steady-Glo readout. As to the method: Example 24: HEK TLR7 Cell Assay
(§1) Into 384 CulturePlates (Corning 3707) was placed 5000 c/w of TLR7/NFKb HEK cells in 30 uL DMEM without Phenol red (gibco #31053) and 10% FCS-HI, 2 mM L-Glutamine, 1% Pen/Strept. The cells are incubated for 24 h at 37 degrees Celsius, and 10% carbon dioxide. Dispense 3 uL of controls, standards, and compounds to wells, incubate for 30 min then add 3 uL of R848 (10 uM final concentration) agonist in 20 mM Hepes. Incubate for 5 hours and then allow to stand at room temperature for 15 min. Add 10 uL of Steady-Glo substrate reagent and shake assay plate for 5 min at 1500 rpm. Let the assay plate sit for 30 min at room temperature and then read plate on EnVision.

Test [2] has as its target T2, TLR8 (Homo sapiens, UniProt Q9NR97).
T2 construct: expressed in transfected cells; host or cells: HEK cells carrying TLR8 and an NFkB luciferase reporter
T2 sequence (Q9NR97 27-1041): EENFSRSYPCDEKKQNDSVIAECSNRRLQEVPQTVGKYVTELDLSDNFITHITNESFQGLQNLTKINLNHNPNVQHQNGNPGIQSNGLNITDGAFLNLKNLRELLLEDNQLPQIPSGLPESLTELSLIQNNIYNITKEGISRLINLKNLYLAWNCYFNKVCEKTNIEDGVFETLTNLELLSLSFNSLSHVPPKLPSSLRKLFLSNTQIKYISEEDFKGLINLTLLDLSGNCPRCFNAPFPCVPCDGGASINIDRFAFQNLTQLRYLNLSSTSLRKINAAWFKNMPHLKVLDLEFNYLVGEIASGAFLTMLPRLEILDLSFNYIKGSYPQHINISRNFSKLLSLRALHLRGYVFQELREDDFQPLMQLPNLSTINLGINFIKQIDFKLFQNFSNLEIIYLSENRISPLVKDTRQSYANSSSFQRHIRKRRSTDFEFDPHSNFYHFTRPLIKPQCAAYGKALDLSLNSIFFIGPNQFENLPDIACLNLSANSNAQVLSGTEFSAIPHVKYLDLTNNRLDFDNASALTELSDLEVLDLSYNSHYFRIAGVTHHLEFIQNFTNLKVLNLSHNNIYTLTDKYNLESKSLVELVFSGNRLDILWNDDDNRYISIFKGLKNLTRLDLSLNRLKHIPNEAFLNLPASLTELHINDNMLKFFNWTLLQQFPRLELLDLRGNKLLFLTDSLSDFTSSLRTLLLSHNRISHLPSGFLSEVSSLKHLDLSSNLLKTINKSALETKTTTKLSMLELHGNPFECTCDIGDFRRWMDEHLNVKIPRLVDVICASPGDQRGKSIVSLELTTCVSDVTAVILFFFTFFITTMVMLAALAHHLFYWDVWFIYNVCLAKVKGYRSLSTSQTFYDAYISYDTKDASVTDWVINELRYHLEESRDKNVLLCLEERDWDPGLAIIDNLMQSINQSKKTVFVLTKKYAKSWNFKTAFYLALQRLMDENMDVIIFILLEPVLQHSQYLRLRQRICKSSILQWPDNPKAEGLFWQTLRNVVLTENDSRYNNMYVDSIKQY
Put plainly: HEK TLR8 Cell Assay. It counts as cell-based. As to conditions: TLR8/NFKb HEK cells, R848 agonist 30 uM final, Steady-Glo readout. How it is done: Example 25: HEK TLR8 Cell Assay
as §1, with “TLR8/NFKb” for “TLR7/NFKb”, “(30” for “(10”

For `C[C@@H]1CN(c2ccc(C(F)(F)F)c3ncccc23)C[C@@H]1NC(=O)CC1(F)CCNCC1` [Compound 25, 2-(4-fluoropiperidin-4-yl)-N-[(3R,4R)-4-methyl-1-[8-(trifluoromethyl)quinolin-5-yl]pyrrolidin-3-yl]acetamide], the IC50 in test [1] and in test [2] was less than 1000 nM throughout.
In the case of `C[C@@H]1CN(c2ccc(C#N)c3nccnc23)C[C@@H]1NC(=O)C(O)C1CC1` (single isomer, unassigned) [Compound 14], the IC50 in test [1] was less than 1000 nM; in test [2] it was 1000 to 10000 nM.
For `CCN(CC)CCNC(=O)C1CCN(c2ccnc3nccnc23)C1` (stereo not drawn) [Compound 54, 1-pyrido[2,3-b]pyrazin-8-yl-pyrrolidine-3-carboxylic acid (2-diethylamino-ethyl)-amide], the IC50 in test [1] and in test [2] was more than 10000 nM each time.
Regarding `C[C@@H]1CN(c2ccc(C#N)c3nccnc23)C[C@@H]1NC(=O)CN1CCOCC1` [Compound 7, N-[(3R,4R)-1-(8-cyanoquinoxalin-5-yl)-4-methylpyrrolidin-3-yl]-2-(morpholin-4-yl)acetamide], the IC50 in test [1] and in test [2] was 1000 to 10000 nM throughout.
For the compound `C[C@@H]1CN(c2ccc(C(F)(F)F)c3ncccc23)C[C@@H]1NC(=O)CC1(C)CCN(C)CC1` [Compound 24, 2-(1,4-dimethylpiperidin-4-yl)-N-[(3R,4R)-4-methyl-1-[8-(trifluoromethyl)quinolin-5-yl]pyrrolidin-3-yl]acetamide], the IC50 in test [1] and in test [2] was less than 1000 nM each time.
Turning to `C[C@@H]1CN(c2ccc(C#N)c3nccnc23)C[C@@H]1NC(=O)CC1CCN(C)CC1` [Compound 2, N-[(3R,4R)-1-(8-cyanoquinoxalin-5-yl)-4-methylpyrrolidin-3-yl]-2-(1-methylpiperidin-4-yl)acetamide], the 50% inhibitory concentration (IC50) in test [1] and in test [2] was less than 1000 nM in each case.
In the case of `C[C@@H]1CN(c2ccc(C(F)(F)F)c3ncccc23)C[C@@H]1NC(=O)C(O)C1CC1` (single isomer, unassigned) [Compound 30], the IC50 in test [1] and in test [2] was 1000 to 10000 nM each time.
As to `CC(C)[C@H](O)C(=O)N[C@H]1CN(c2ccc(C#N)c3nccnc23)C[C@H]1C` [Compound 15, (2S)—N-[(3R,4R)-1-(8-cyanoquinoxalin-5-yl)-4-methylpyrrolidin-3-yl]-2-hydroxy-3-methylbutanamide], the IC50 in test [1] and in test [2] was 1000 to 10000 nM in each case.
For the compound `C[C@@H]1CN(c2ccc(C#N)c3nccnc23)C[C@@H]1NC(=O)C(O)C1CC1` (single isomer, unassigned) [Compound 13], the figures for the IC50 in test [1] and in test [2] were 1000 to 10000 nM and more than 10000 nM, respectively.
Regarding `NC1CN(c2ccc(C(F)(F)F)c3ncccc23)CC1F` (single isomer, unassigned) [Compound 50], the IC50 in test [1] and in test [2] was more than 10000 nM each time.
Consider `C[C@@H]1CN(c2ccc(C#N)c3nccnc23)C[C@@H]1NC(=O)CC1CCCN(C)C1` (single isomer, unassigned) [Compound 4], for which the IC50 in test [1] and in test [2] was less than 1000 nM in each case.
On to `C[C@@H]1CN(c2ccc(C(F)(F)F)c3ncccc23)C[C@@H]1NC(=O)CC1CCN(C)C1` (single isomer, unassigned) [Compound 21], for which the IC50 in test [1] and in test [2] was less than 1000 nM in each case.
As to `Cc1ccc(N2C[C@@H](C)[C@@H](N)C2)c2cccnc12` [Compound 33, (3R,4R)-4-methyl-1-(8-methylquinolin-5-yl)pyrrolidin-3-amine], the IC50 in test [1] and in test [2] was more than 10000 nM throughout.
For the compound `Cc1ccc(N2C[C@@H](C)[C@@H](NC(=O)C(O)C3CC3)C2)c2cccnc12` (single isomer, unassigned) [Compound 45], the IC50 in test [1] and in test [2] was more than 10000 nM each time.
For the compound `Cc1cc2c(N3CCC(CNCCN4CCCCC4)C3)ccnc2n1C` (stereo not drawn) [Compound 55, [1-(1,2-Dimethyl-1H-pyrrolo[2,3-b]pyridin-4-yl)-pyrrolidin-3-ylmethyl]-(2-piperidin-1-yl-ethyl)-amine], the IC50 was 1000 to 10000 nM in test [1] and more than 10000 nM in test [2].
In the case of `Cc1ccc(N2C[C@@H](C)[C@@H](NC(=O)CC3CCN(C)CC3(F)F)C2)c2cccnc12` (single isomer, unassigned) [Compound 43], the IC50 in test [1] was 1000 to 10000 nM; in test [2], more than 10000 nM.
Consider `C[C@@H]1CN(c2ccc(C(F)(F)F)c3ncccc23)C[C@@H]1NC(=O)CC1CCN(C)CC1(F)F` (single isomer, unassigned) [Compound 27], for which the IC50 in test [1] and in test [2] was 1000 to 10000 nM each time.
Regarding `C[C@@H]1CN(c2ccc(C(F)(F)F)c3ncccc23)C[C@@H]1NC(=O)CC1CCN(C)C1` (single isomer, unassigned) [Compound 22], the IC50 in test [1] and in test [2] was less than 1000 nM each time.
As for `Cc1ccc(N2C[C@@H](C)[C@@H](NC(=O)CC3CCCN(C)C3)C2)c2cccnc12` (single isomer, unassigned) [Compound 36], the IC50 is less than 1000 nM in test [1] and 1000 to 10000 nM in test [2].
The matching figures for `Cc1ccc(N2C[C@@H](C)[C@@H](NC(=O)CC3(F)CCNCC3)C2)c2cccnc12` [Compound 41, 2-(4-fluoropiperidin-4-yl)-N-[(3R,4R)-4-methyl-1-(8-methylquinolin-5-yl)pyrrolidin-3-yl]acetamide]: less than 1000 nM and 1000 to 10000 nM.
Regarding `Cc1ccc(N2C[C@@H](C)[C@@H](NC(=O)CN3CCOCC3)C2)c2cccnc12` [Compound 39, N-[(3R,4R)-4-methyl-1-(8-methylquinolin-5-yl)pyrrolidin-3-yl]-2-(morpholin-4-yl)acetamide], the figures for the concentration for half-maximal inhibition (IC50) in test [1] and in test [2] were 1000 to 10000 nM and more than 10000 nM, respectively.
